Bridge positions count the residues as written; N and C are the ends. Ends that are not written are not given here.
Tests used:
[1] = test system: fungi, Gram-positive or Gram-negative bacteria; assay: Antimicrobial screening, overall; type: cell-based; settings: 1, 5, 10, 20 µM
Procedure: The antimicrobial activity of r-magnificamide was tested against Gram-positive (Staphylococcus aureus ATCC 21027 and Bacillus subtilis ATCC6633), Gram-negative bacteria (Escherichia coli VKPM B-7935 and Pseudomonas aeruginosa ATCC 27853), and the fungus Candida albicans KMM 455 by the agar dilution method. Microbial strains were taken from the American Type Culture Collection (ATCC), Russian National Collection of Industrial Microorganisms (VKPM), and Collection of Marine Microorganisms (KMM) (Pacific Institute of Bioorganic Chemistry FEB RAS). To obtain a microbial lawn, 0.1 mL of a cell suspension (0.5 × 10^8 cells/mL) was uniformly distributed on agar surface in Petri dishes (15 g/L tryptic soy broth, 2 g/L bacto yeast extract, 1 g/L glucose, and 20 g/L agar for bacteria; for fungi 10 g/L of glucose was added). Wells with a diameter of 6 mm were punched into the agar and filled with 100 µL of the peptide solution at concentrations 1, 5, 10, and 20 µM. The plates were then incubated for 18 h at 37 °C for bacteria, and at 30 °C for the fungus. Minimum inhibitory concentration was determined by measuring the clear zone of inhibition around each well. All assays were performed independently three times.

[2] = molecular target: T1, porcine pancreatic α-amylase (PPA) (Sus scrofa, UniProt P00690); assay: Determination of Ki against porcine pancreatic α-amylase (Morrison); type: biochemical; settings: 37 °C, 50 mM sodium phosphate, 100 mM NaCl, pH 7.0; CNPG3 1 mM (KM 0.71 mM), nominal [E] 20 nM; 10 min pre-incubation; 405 nm; Morrison fit, competitive mode assumed; mean ± SE (n = 3)
T1 construct: purchased Sigma Aldrich A4268
T1 sequence (P00690 16-511): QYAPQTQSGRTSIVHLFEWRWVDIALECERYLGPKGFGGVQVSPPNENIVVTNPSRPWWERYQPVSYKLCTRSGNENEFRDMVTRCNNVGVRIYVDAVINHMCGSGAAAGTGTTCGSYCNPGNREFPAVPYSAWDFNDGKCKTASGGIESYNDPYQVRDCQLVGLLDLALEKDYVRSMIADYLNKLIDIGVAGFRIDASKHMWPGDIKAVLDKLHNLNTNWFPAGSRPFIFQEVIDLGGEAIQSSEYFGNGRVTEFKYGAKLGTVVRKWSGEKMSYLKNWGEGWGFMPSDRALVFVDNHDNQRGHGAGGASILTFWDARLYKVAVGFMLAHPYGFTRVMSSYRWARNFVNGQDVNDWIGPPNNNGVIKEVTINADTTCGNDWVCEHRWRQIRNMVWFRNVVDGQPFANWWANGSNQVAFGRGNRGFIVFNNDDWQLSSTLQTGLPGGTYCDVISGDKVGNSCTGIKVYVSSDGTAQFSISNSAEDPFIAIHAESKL
Procedure: For a quantitative assessment of tight-binding inhibitor potency, Morrison’s method was applied. This method uses the Morrison quadratic equation (Equation (1)) for fitting inhibitor-response data and determining Ki app as a nonlinear regression parameter. (1) υ/υo=1−([E]+[I]+Kiapp)−([E]+[I]+Kiapp)^2−4[E][I]/2[E]o
Kinetic assays were carried out at 37 °C in 50 mM sodium phosphate and 100 mM sodium chloride (pH 7.0). 2-Chloro-4-nitrophenyl-α-maltotrioside (CNPG3) (Sigma Aldrich, St. Louis, MO, USA) was used as the substrate and the optical absorption of the 2-chloro-4-nitrophenol was measured at 405 nm. Reactions were run with final [CNPG3] = 1 mM ([S]/KM = 1.41, KM = 0.71 mM), nominal [E] = 20 nM for PPA, [CNPG3] = 3.3 mM ([S]/KM = 0.97, KM = 3.4 mM), and nominal [E] = 100 nM for HSA to provide sufficient analytical signal. Inhibitor dilution schemes were optimized considering recommendations in [34].
The enzyme was pre-incubated with the inhibitor for 10 minutes before the addition of substrate which launched the reaction. Reactions were monitored on an xMark microplate spectrophotometer (BioRad, USA) in the kinetic mode for 30 min. The initial linear steady state region provided initial rate values for each inhibitor concentration (υ), along with uninhibited rate values (υo). Measurements were run in triplicate. […]

In the case of “SEGTSCYIYHGVYGICKAKCAEDMKAMAGMGVCEGDLCCYKTPW (disulfide 6-38, 16-33, 20-39) [r-magnificamide]”, the “Antimicrobial activity, overall” value [1] is reported as “did not reveal activity against fungi, Gram-positive or Gram-negative bacteria”, the “Antimicrobial activity, overall” value ([1]; listed as recombinant analog of magnificamide) is reported as “does not show antimicrobial or channel modulating activities” and the Ki [2] is reported as 0.17 ± 0.06 nM.
